Source: patent US9617310B2 (priority 2013, dated 2017)
pEC50, pKi: −log10 of the molar value.

Assays:
[1] = target: T1, NS3 genotype 1b protease (Hepatitis C virus genotype 1b, UniProt Q9WMX2, E1202G); assay: Ki determination, NS3 protease genotype 1b (fluorogenic depsipeptide substrate); type: biochemical; conditions: NS3 protease domain genotype 1b, NS4A peptide
T1 construct: Purified NS3 protease domain (amino acids 1-181) of the genotype 1b and 3a virus were generated as above; K3 hexahistidine tag (N); rTEV protease cleavage site (N); made in house; host or cells: E. coli BL21AI
T1 sequence (Q9WMX2 1027-1207 E1202G, other chains not shown): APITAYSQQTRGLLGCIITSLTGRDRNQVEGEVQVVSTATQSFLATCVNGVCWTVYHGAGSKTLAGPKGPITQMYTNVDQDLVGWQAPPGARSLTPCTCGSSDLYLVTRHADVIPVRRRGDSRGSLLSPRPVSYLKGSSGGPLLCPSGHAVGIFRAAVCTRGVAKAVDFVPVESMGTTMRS
In short: (§1)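 NS3 protease domain (aa 1-181), 50 pM (1b) or 200 pM (3a), with 20 μM NS4A peptide, pre-incubated 1 h with inhibitor (100 nM–5 pM); 4 μM (1b) or 2 μM (3a) FRET depsipeptide substrate, room temperature, pH-unspecified HEPES buffer with 40% glycerol, 10% DMSO. Steady-state rates at 90–120 min (ex 340/em 490); Morrison fit gave Ki^app, corrected to Ki via substrate/Km.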

[2] = target: T2, NS3 genotype 3a protease (UniProt Q81258); assay: Ki determination, NS3 protease genotype 3a (fluorogenic depsipeptide substrate); type: biochemical, hepatitis C virus; conditions: NS3 protease domain genotype 3a, NS4A peptide
T2 construct: Purified NS3 protease domain (amino acids 1-181) of the genotype 1b and 3a virus were generated as above; fused on or other part: N-terminal hexahistidine tag with an rTEV protease cleavage site (vector p28-N6H-Tev-NS3(181)3)
T2 sequence (Q81258 1033-1663): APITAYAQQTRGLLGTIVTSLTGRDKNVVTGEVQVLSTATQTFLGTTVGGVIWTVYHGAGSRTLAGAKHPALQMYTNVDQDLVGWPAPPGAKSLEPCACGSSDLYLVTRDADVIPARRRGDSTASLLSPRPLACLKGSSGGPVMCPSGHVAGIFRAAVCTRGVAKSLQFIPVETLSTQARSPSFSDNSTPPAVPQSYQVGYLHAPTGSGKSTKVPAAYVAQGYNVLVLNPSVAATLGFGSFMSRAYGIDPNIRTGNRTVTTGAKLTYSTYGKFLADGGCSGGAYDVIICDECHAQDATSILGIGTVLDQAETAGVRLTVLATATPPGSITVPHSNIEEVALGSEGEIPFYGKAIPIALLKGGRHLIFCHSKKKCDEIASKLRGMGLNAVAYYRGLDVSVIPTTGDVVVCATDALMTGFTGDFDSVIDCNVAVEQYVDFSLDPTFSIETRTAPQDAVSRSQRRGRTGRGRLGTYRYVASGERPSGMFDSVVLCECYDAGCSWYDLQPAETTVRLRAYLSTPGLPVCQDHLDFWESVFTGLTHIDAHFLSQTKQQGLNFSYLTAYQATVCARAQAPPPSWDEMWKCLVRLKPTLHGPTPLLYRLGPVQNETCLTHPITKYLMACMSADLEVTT
In short: as §1

[3] = tested on: genotype 1b stable HCV replicon (Con1) in Huh-7-derived cells; assay: Stable subgenomic HCV replicon, genotype 1b, Renilla luciferase; type: cell-based; conditions: Hepatitis C virus, stable replicon genotype 1b, 72 h, read-out: EC50 1B RLUC
In short: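 Replicons carry hRLuc-neo, EMCV IRES and NS3-NS5B with adaptive mutations: 1a H77 P1496L/S2204I, 1b Con1 E1202G/T1280I/K1846T, 4a ED43 Q1691R/S2204I. EC50 came from non-linear regression versus DMSO and a triple-inhibitor full-inhibition control.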

[4] = tested on: genotype 3a transient HCV replicon (S52) in Huh-7-derived cells; assay: Transient-transfected HCV replicon, genotype 3a wild type; type: cell-based; conditions: Hepatitis C virus; transient-transfected replicon genotype 3a wild type, 72 h; read-out: EC50 3A WT

SMILES | pKi [1] | pKi [2] | pEC50 [3] | pEC50 [4]
CC(C)(C)[C@@H]1NC(=O)O[C@@H]2C[C@@H]3C[C@@H]3[C@H]2CCCCC(F)(F)c2nc3ccc(OC(F)F)cc3nc2O[C@@H]2C[C@@H](C(=O)N[C@]3(C(=O)NS(=O)(=O)C4CC4)C[C@H]3C(F)F)N(C2)C1=O [Example 16, (1aS,2aR,6S,9S,11R,23aR,23bS)-6-tert-butyl-N-[(1R,2R)-1-[(cyclopropylsulfonyl)carbamoyl]-2-(difluoromethyl)cyclopropyl]-15-(difluoromethoxy)-19,19-difluoro-4,7-dioxo-1a,2,2a,4,5,6,7,10,11,19,20,21,22,23,23a,23b-hexadecahydro-1H,9H-8,11-methanocyclopropa[4′,5′]cyclopenta [1′,2′:18,19][1,10,3,6]dioxadiazacyclononadecino[11,12-b]quinoxaline-9-carboxamide] | 10.52 | 9.89 | 8.38 | 7.30
CC(C)(C)[C@@H]1NC(=O)O[C@@H]2C[C@@H]3C[C@@H]3[C@H]2CCCCC(F)(F)c2nc3ccccc3nc2O[C@@H]2C[C@@H](C(=O)N[C@]3(C(=O)NS(=O)(=O)C4(C)CC4)C[C@H]3C(F)F)N(C2)C1=O [Example 17] | 11.00 | 10.70 | 8.33 | 8.15
CC(C)(C)[C@@H]1NC(=O)O[C@@H]2C[C@@H]3C[C@@H]3[C@H]2CCCCC(F)(F)c2nc3ccccc3nc2O[C@@H]2C[C@@H](C(=O)N[C@]3(C(=O)NS(=O)(=O)C4CC4)C[C@H]3C(F)F)N(C2)C1=O [Example 18] | 11.00 | 10.70 | 8.39 | 8.31
CC(C)(C)[C@@H]1NC(=O)O[C@@H]2C[C@@H]3C[C@@H]3[C@H]2CCCCCc2nc3ccc(Cl)cc3nc2O[C@@H]2C[C@@H](C(=O)N[C@]3(C(=O)NS(=O)(=O)C4CC4)C[C@H]3C(F)F)N(C2)C1=O [Example 19, (1aS,2aR,6S,9S,11R,23aR,23bS)-6-tert-butyl-15-chloro-N-[(1R,2R)-1-[(cyclopropylsulfonyl)carbamoyl]-2-(difluoromethyl)cyclopropyl]-4,7-dioxo-1a,2,2a,4,5,6,7,10,11,19,20,21,22,23,23a, 23b-hexadecahydro-1H,9H-8,11-methanocyclopropa[4′,5′]cyclopenta[1′,2′:18,19][1,10,3,6]dioxadiazacyclononadecino[11,12-b]quinoxaline-9-carboxamide] | 10.70 | 10.22 | 8.89 | 7.77
COc1ccc2nc3c(nc2c1)O[C@@H]1C[C@@H](C(=O)N[C@]2(C(=O)NS(=O)(=O)C4(C)CC4)C[C@H]2CC(F)F)N(C1)C(=O)[C@H](C(C)(C)C)NC(=O)O[C@@H]1C[C@@H]2C[C@@H]2[C@H]1CCCCC3(F)F [Example 20, (1aS,2aR,6S,9S,11R,23aR,23bS)-6-tert-butyl-N-[(1R,2S)-2-(2,2-difluoroethyl)-1-{[(1-methylcyclopropyl)sulfonyl]carbamoyl}cyclopropyl]-19,19-difluoro-15-methoxy-4,7-dioxo-1a,2,2a,4,5,6,7,10,11,19,20,21,22,23,23a,23b-hexadecahydro-1H,9H-8,11-methanocyclopropa[4′,5′]cyclopenta[1′,2′:18,19][1,10,3,6]dioxadiazacyclononadecino[11,12-b]quinoxaline-9-carboxamide] | 10.40 | 10.15 | 8.23 | 7.92
COc1ccc2cc3c(nc2c1)O[C@@H]1C[C@@H](C(=O)N[C@]2(C(=O)NS(=O)(=O)C4CC4)C[C@H]2C(F)F)N(C1)C(=O)[C@H](C(C)(C)C)NC(=O)O[C@@H]1C[C@@H]2C[C@@H]2[C@H]1CCCCC3 [Example 21, (1aS,2aR,6S,9S,11R,23aR,23bS)-6-tert-butyl-N-[(1R,2R)-1-[(cyclopropylsulfonyl)carbamoyl]-2-(difluoromethyl)cyclopropyl]-15-methoxy-4,7-dioxo-1a,2,2a,4,5,6,7,10,11,19,20,21,22,23,23a,23b-hexadecahydro-1H,9H-8,11-methanocyclopropa[4′,5′]cyclopenta[1′,2′:18,19][1,10,3,6]dioxadiazacyclononadecino[11,12-b]quinoline-9-carboxamide] | 10.70 | 10.00 | 9.02 | 7.44
